ChEMBL document CHEMBL1150930, “Metabolism of rosmarinic acid in rats” (J Nat Prod, 1998)

How the values were obtained:
Set-up in all cases: dose 200 mg/kg, route oral
[1] = test system: Rattus norvegicus; assay: Metabolic stability in Sprague-Dawley rat assessed as urinary excretion of trans-caffeic acid level at 200 mg/kg, po after 0 to 48 hrs by HPLC; type: ADME, organism-based, Urine; details: in vivo
[2] = test system: Rattus norvegicus; assay: Metabolic stability in Sprague-Dawley rat assessed as urinary excretion of trans-caffeic acid level at 200 mg/kg, po after 0 to 72 hrs by HPLC; type: ADME, organism-based, Urine; details: in vivo
[3] = test system: Rattus norvegicus; assay: Metabolic stability in Sprague-Dawley rat assessed as urinary excretion of total metabolites at 200 mg/kg, po after 0 to 8 hrs by HPLC; type: ADME, organism-based, Urine; details: in vivo
[4] = test system: Rattus norvegicus; assay: Metabolic stability in Sprague-Dawley rat assessed as urinary excretion of m-hydroxyphenyl-propionic acid level at 200 mg/kg, po after 0 to 8 hrs by HPLC; type: ADME, organism-based, Urine; details: in vivo
[5] = test system: Rattus norvegicus; assay: Metabolic stability in Sprague-Dawley rat assessed as urinary excretion of m-hydroxyphenyl-propionic acid level at 200 mg/kg, po after 0 to 12 hrs by HPLC; type: ADME, organism-based, Urine; details: in vivo
[6] = test system: Rattus norvegicus; assay: Metabolic stability in Sprague-Dawley rat assessed as urinary excretion of m-hydroxyphenyl-propionic acid level at 200 mg/kg, po after 0 to 24 hrs by HPLC; type: ADME, organism-based, Urine; details: in vivo
[7] = test system: Rattus norvegicus; assay: Metabolic stability in Sprague-Dawley rat assessed as urinary excretion of m-hydroxyphenyl-propionic acid level at 200 mg/kg, po after 0 to 36 hrs by HPLC; type: ADME, organism-based, Urine; details: in vivo
[8] = test system: Rattus norvegicus; assay: Metabolic stability in Sprague-Dawley rat assessed as urinary excretion of m-hydroxyphenyl-propionic acid level at 200 mg/kg, po after 0 to 48 hrs by HPLC; type: ADME, organism-based, Urine; details: in vivo
[9] = test system: Rattus norvegicus; assay: Metabolic stability in Sprague-Dawley rat assessed as urinary excretion of m-hydroxyphenyl-propionic acid level at 200 mg/kg, po after 0 to 72 hrs by HPLC; type: ADME, organism-based, Urine; details: in vivo
[10] = test system: Rattus norvegicus; assay: Metabolic stability in Sprague-Dawley rat assessed as urinary excretion of total metabolites at 200 mg/kg, po after 0 to 4 hrs by HPLC; type: ADME, organism-based, Urine; details: in vivo
[11] = test system: Rattus norvegicus; assay: Metabolic stability in Sprague-Dawley rat assessed as urinary excretion of trans-m-coumaric acid level at 200 mg/kg, po after 0 to 8 hrs by HPLC; type: ADME, organism-based, Urine; details: in vivo
[12] = test system: Rattus norvegicus; assay: Metabolic stability in Sprague-Dawley rat assessed as urinary excretion of trans-m-coumaric acid level at 200 mg/kg, po after 0 to 12 hrs by HPLC; type: ADME, organism-based, Urine; details: in vivo
[13] = test system: Rattus norvegicus; assay: Metabolic stability in Sprague-Dawley rat assessed as urinary excretion of trans-m-coumaric acid level at 200 mg/kg, po after 0 to 24 hrs by HPLC; type: ADME, organism-based, Urine; details: in vivo
[14] = test system: Rattus norvegicus; assay: Metabolic stability in Sprague-Dawley rat assessed as urinary excretion of trans-m-coumaric acid level at 200 mg/kg, po after 0 to 36 hrs by HPLC; type: ADME, organism-based, Urine; details: in vivo
[15] = test system: Rattus norvegicus; assay: Metabolic stability in Sprague-Dawley rat assessed as urinary excretion of trans-m-coumaric acid level at 200 mg/kg, po after 0 to 48 hrs by HPLC; type: ADME, organism-based, Urine; details: in vivo
[16] = test system: Rattus norvegicus; assay: Metabolic stability in Sprague-Dawley rat assessed as urinary excretion of trans-m-coumaric acid level at 200 mg/kg, po after 0 to 72 hrs by HPLC; type: ADME, organism-based, Urine; details: in vivo
[17] = Metabolic stability in Sprague-Dawley rat assessed as urinary excretion of unchanged drug level at 200 mg/kg, po after 0 to 4 hrs by HPLC; type: ADME, organism-based; details: urine, read-out: Activity
[18] = Metabolic stability in Sprague-Dawley rat assessed as urinary excretion of unchanged drug level at 200 mg/kg, po after 0 to 8 hrs by HPLC; type: ADME, organism-based; details: urine, read-out: Activity
[19] = Metabolic stability in Sprague-Dawley rat assessed as urinary excretion of unchanged drug level at 200 mg/kg, po after 0 to 12 hrs by HPLC; type: ADME, organism-based; details: urine, read-out: Activity
[20] = Metabolic stability in Sprague-Dawley rat assessed as urinary excretion of unchanged drug level at 200 mg/kg, po after 0 to 24 hrs by HPLC; type: ADME, organism-based; details: urine, read-out: Activity
[21] = Metabolic stability in Sprague-Dawley rat assessed as urinary excretion of unchanged drug level at 200 mg/kg, po after 0 to 36 hrs by HPLC; type: ADME, organism-based; details: urine, read-out: Activity
[22] = Metabolic stability in Sprague-Dawley rat assessed as urinary excretion of unchanged drug level at 200 mg/kg, po after 0 to 48 hrs by HPLC; type: ADME, organism-based; details: urine, read-out: Activity
[23] = Metabolic stability in Sprague-Dawley rat assessed as urinary excretion of unchanged drug level at 200 mg/kg, po after 0 to 72 hrs by HPLC; type: ADME, organism-based; details: urine, read-out: Activity
[24] = test system: Rattus norvegicus; assay: Metabolic stability in Sprague-Dawley rat assessed as urinary excretion of total metabolites at 200 mg/kg, po after 0 to 36 hrs by HPLC; type: ADME, organism-based, Urine; details: in vivo
[25] = test system: Rattus norvegicus; assay: Metabolic stability in Sprague-Dawley rat assessed as urinary excretion of total metabolites at 200 mg/kg, po after 0 to 48 hrs by HPLC; type: ADME, organism-based, Urine; details: in vivo
[26] = test system: Rattus norvegicus; assay: Metabolic stability in Sprague-Dawley rat assessed as urinary excretion of total metabolites at 200 mg/kg, po after 0 to 72 hrs by HPLC; type: ADME, organism-based, Urine; details: in vivo

SMILES: O=C(/C=C/c1ccc(O)c(O)c1)O[C@H](Cc1ccc(O)c(O)c1)C(=O)O [ROSMARINIC ACID]
- Activity [1]: 0.117%
- Activity [2]: 0.117%
- Activity [3]: 1.476%
- Activity [4]: 0.949%
- Activity [5]: 5.252%
- Activity [6]: 14.527%
- Activity [7]: 17.43%
- Activity [8]: 18.357%
- Activity [9]: 18.357%
- Activity [10]: 0.17%
- Activity [11]: 0.015%
- Activity [12]: 0.1%
- Activity [13]: 0.333%
- Activity [14]: 0.399%
- Activity [15]: 0.413%
- Activity [16]: 0.413%
- dose excreted [17]: 0.041%
- dose excreted [18]: 0.077%
- dose excreted [19]: 0.077%
- dose excreted [20]: 0.077%
- dose excreted [21]: 0.077%
- dose excreted [22]: 0.077%
- dose excreted [23]: 0.077%
- Activity [24]: 30.483%
- Activity [25]: 31.836%
- Activity [26]: 31.836%
